Here are results for 17 compounds from patent publication US20260224548A1 (priority 2022, published 2026).

Where two headings read alike, the source gives them in different places.

One assay addresses T1, HsEH (Homo sapiens, UniProt P34913).
T1 sequence (P34913 1-555): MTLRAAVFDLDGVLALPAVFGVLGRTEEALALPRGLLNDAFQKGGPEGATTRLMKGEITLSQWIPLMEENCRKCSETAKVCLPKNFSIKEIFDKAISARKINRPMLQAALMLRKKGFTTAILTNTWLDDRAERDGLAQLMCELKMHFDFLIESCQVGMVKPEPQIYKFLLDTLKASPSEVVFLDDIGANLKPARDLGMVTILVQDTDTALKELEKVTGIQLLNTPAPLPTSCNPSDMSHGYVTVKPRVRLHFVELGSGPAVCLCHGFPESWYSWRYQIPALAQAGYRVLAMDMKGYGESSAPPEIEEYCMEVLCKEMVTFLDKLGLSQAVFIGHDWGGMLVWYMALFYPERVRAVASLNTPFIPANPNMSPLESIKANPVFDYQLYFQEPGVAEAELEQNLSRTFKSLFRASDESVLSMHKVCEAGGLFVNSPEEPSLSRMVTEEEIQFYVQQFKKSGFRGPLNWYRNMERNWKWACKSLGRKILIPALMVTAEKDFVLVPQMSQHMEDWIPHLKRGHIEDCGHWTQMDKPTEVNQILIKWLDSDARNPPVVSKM
Kind of assay: biochemical. It counts as biochemical. The text has this:
(§1) Detection principle: a specific substrate, (3-phenyl-oxy)-acetic acid cyano-(6-methoxy-naphthalen-2-yl)methyl ester, namely PHOME, is non-fluorescent but can be hydrolyzed under the action of sEH enzyme to generate a product 6-methoxy-2-naphthaldehyde. The 6-methoxy-2-naphthaldehyde can emit fluorescence with a wavelength of 465 nm under 330 nm light wave excitation, and an intensity of the detected fluorescence signal is inversely proportional to an inhibitory effect on the sEH enzyme. Based on the above principle, the inhibition rates of samples with different concentrations were calculated compared with the positive control group. The IC50 value of the compound was calculated based on the inhibition rate and concentration using SPSS 20 software.
(§2) 25 mM Tris-HCl buffer (pH=7.4, containing 0.1 mg/mL BSA): […] BAS was added to 12.5 mL of 1 M Tris-HCl buffer, followed by diluting with purified water, and a resulting mixture was adjusted to a pH value of 7.4 with hydrochloric acid, and diluted to 500 mL.
(§3) PHOME solution: 0.79 mg PHOME was dissolved in 106 μL DMSO to obtain a 20 mM PHOME solution, which was diluted to ⅓ mM with Tris-HCl buffer before use.
(§4) sEH solution: sEH (5 mg/mL) stock solution was stored in a refrigerator at −80° C. and diluted to 4 μg/mL with 25 mM Tris-HCl buffer before use.
(§5) A sample powder to be tested was dissolved in DMSO to a 20 mM solution, stored in a refrigerator at −20° C. for later use, and diluted with Tris-HCl buffer to corresponding concentrations when used.
(§6) Experimental design: solvent group, 100% activity group (A), inhibitor group (B), positive control group (C), as shown in Table 1.
(§7) Three replicate wells were set for each sample, and the average value of the three replicate wells was the fluorescence value (F) of the compound to be tested. […] The IC50 value of the compound was calculated based on the inhibition rate and concentration using SPSS 20 software.

For another assay, the target named is T2, MsEH (Mus musculus, UniProt P34914).
T2 sequence (P34914 1-554): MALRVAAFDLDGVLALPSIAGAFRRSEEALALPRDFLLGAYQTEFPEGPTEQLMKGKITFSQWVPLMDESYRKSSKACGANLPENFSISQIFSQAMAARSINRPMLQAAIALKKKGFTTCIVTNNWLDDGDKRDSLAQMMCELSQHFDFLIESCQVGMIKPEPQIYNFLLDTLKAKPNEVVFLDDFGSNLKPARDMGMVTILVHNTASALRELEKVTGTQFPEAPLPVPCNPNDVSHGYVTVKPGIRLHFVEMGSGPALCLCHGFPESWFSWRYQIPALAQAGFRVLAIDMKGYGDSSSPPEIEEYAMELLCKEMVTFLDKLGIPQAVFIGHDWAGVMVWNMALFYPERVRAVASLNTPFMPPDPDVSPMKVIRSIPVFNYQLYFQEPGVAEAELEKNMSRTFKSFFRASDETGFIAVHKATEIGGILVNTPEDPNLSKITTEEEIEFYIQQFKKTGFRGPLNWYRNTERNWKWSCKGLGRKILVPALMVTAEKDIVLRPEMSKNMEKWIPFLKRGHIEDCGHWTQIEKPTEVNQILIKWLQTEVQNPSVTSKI
Nature of the assay: sEH inhibitory activity, PHOME fluorescence assay (MsEH). It is filed as biochemical.
From the text: as §1, §2, §3, §4, §5, §6, §7

[1] abbreviates: PHOME substrate 50 μM, sEH 400 ng/ml, 37° C., 10 min, fluorescence 330/465 nm, read-out: HsEH IC50 (nM) Inhibitory activity against HsEH.
Where [2] appears, read: PHOME substrate 50 μM, sEH 400 ng/ml, 37° C., 10 min, fluorescence 330/465 nm, read-out: MsEH IC50 (nM) Inhibitory activity against MsEH.

Take `CC12CC3CC(C)(C1)CC(NC(=O)Nc1ccc(C(=O)N[C@H]4CC[C@H](C(=O)NCCN5CCN(C(=O)OC(C)(C)C)CC5)CC4)cc1F)(C3)C2` [ZT-116, tert-butyl 4-(2-((1R,4r)-4-(4-(3-((1r,3R,5S,7r)-3,5-dimethyladamantan-1-yl)ureido)-3-fluorobenzamido)cyclohexane-1-carboxamido)ethyl) piperazine-1-carboxylate]: the IC50 on HsEH (setting [1]) worked out at 183 nM; against MsEH, 2 nM.
On the same counts, the results for `CC12CC3CC(C)(C1)CC(NC(=O)Nc1ccc(C(=O)N4CCC(C(=O)NCCO)CC4)cc1F)(C3)C2` [CC-114, 1-(4-(3-((1r,3R,5S,7r)-3,5-dimethyladamantan-1-yl)ureido)-3-fluorobenzoyl)-N-(2-hydroxyethyl) piperidine-4-carboxamide] are 3.43 nM and 0.26 nM.
Taken in the same sequence, the figures for `CCC(C)C(=O)N1CCC(CC(=O)N2CCCN(Cc3ccc(NC(=O)NC45CC6CC(C)(CC(C)(C6)C4)C5)c(F)c3)CC2)CC1` [GL-2, 1-((1r,3R,5S,7r)-3,5-dimethyladamantan-1-yl)-3-(2-fluoro-4-((4-(2-(1-(2-methylbutyryl)piperidin-4-yl)acetyl)-1,4-diaza-1-yl)methyl)phenyl) urea] were 0.77 nM and 0.16 nM.
Turning to “methyl 4-(2-(4-(4-(3-((1r,3R,5S,7r)-3,5-dimethyladamantan-1-yl) ureido)-3-fluorobenzyl)-1,4-diaza-1-yl)-2-oxoethyl) piperidine-1-carboxylate [GL-4]”, the half-inhibitory concentration (IC50) at HsEH (setting [1]) was determined as 1.1 nM; at MsEH (setting [2]), 0.41 nM.
As to `CC12CC3CC(C)(C1)CC(NC(=O)Nc1ccc(C(=O)N4CCC[C@H](C(=O)N5CCN(CCO)CC5)C4)cc1F)(C3)C2` [CC-121, 1-((1r,3R,5S,7S)-3,5-dimethyladamantan-1-yl)-3-(2-fluoro-4-((S)-3-(4-(2-hydroxyethyl)piperazine-1-carbonyl)piperidine-1-carbonyl)phenyl) urea], the half-inhibitory concentration (IC50) at HsEH (setting [1]) is 0.84 nM; against MsEH, 0.15 nM.
On the same counts, the results for `CCC(=O)N1CCC(CC(=O)N2CCCN(Cc3ccc(NC(=O)NC45CC6CC(C)(CC(C)(C6)C4)C5)c(F)c3)CC2)CC1` [GL-1, 1-((1r,3R,5S,7r)-3,5-dimethyladamantan-1-yl)-3-(2-fluoro-4-((4-(2-(1-propionylpiperidin-4-yl)acetyl)-1,4-diaza-1-yl)methyl)phenyl) urea] are 0.33 nM and 0.07 nM.
Turning to “1-(4-(4-(2-(1-acetylpiperidin-4-yl) acetyl)-1,4-diaza-1-carbonyl)-2-fluorophenyl)-3-((1r,3R,5S, 7r)-3,5-dimethyladamantan-1-yl) urea [CC-106]”, the IC50 on HsEH (setting [1]) came to 1 nM; on MsEH (setting [2]), 0.13 nM.
On to `CC12CC3CC(C)(C1)CC(NC(=O)Nc1ccc(CN4CCC[C@H](C(=O)NC(CO)(CO)CO)C4)cc1F)(C3)C2` [CL-115, (S)—N-(1,3-dihydroxy-2-(hydroxymethyl)propan-2-yl)-1-(4-(3-((1r,3R,5S,7S)-3,5-dimethyladamantan-1-yl)ureido)-3-fluorobenzyl) piperidine-3-carboxamide], for which the 50% inhibitory concentration (IC50) is 0.14 nM at HsEH (setting [1]) and 0.32 nM at MsEH.
On the same counts, the results for `CC(O)CNC(=O)C1CCN(C(=O)c2ccc(NC(=O)NC34CC5CC(C)(CC(C)(C5)C3)C4)c(F)c2)CC1` [CC-115, 1-(4-(3-((1r,3R,5S,7r)-3,5-dimethyladamantan-1-yl)ureido)-3-fluorobenzoyl)-N-(2-hydroxypropyl) piperidine-4-carboxamide] are 4.5 nM and 0.18 nM.
In the case of `CC(O)CNC(=O)[C@H]1CCCN(C(=O)c2ccc(NC(=O)NC34CC5C[C@@](C)(C3)C[C@](C)(C5)C4)c(F)c2)C1` (stereo partly drawn) [CC-113, (3S)-1-(4-(3-((1r,3R,5S,7S)-3,5-dimethyladamantan-1-yl)ureido)-3-fluorobenzoyl)-N-(2-hydroxypropyl) piperidine-3-carboxamide], the IC50 was 0.28 nM at HsEH (setting [1]) and 0.23 nM at MsEH (setting [2]).
For the compound `CCC(=O)N1CCC(CC(=O)N2CCCN(C(=O)c3ccc(NC(=O)NC45CC6CC(C)(CC(C)(C6)C4)C5)c(F)c3)CC2)CC1` [CC-105, 1-((1r,3R,5S, 7r)-3,5-dimethyladamantan-1-yl)-3-(2-fluoro-4-(4-(2-(1-propionylpiperidin-4-yl)acetyl)-1,4-diaza-1-carbonyl)phenyl) urea], the results for the IC50 at HsEH and at MsEH were 0.9 nM and 0.39 nM, respectively.
Turning to `CC(CN(C)C)N1CCC(CC(=O)N2CCCN(C(=O)c3ccc(NC(=O)NC45CC6CC(C)(CC(C)(C6)C4)C5)c(F)c3)CC2)CC1` [CC-124, 1-((1r,3R,5S,7r)-3,5-dimethyladamantan-1-yl)-3-(4-(4-(2-(1-(1-(dimethylamino)propan-2-yl)piperidin-4-yl)acetyl)-1,4-diaza-1-carbonyl)-2-fluorophenyl) urea], the results for the IC50 on HsEH (setting [1]) and on MsEH were 19.6 nM and 0.8 nM, respectively.
On the same counts, the results for `CC12CC3CC(C)(C1)CC(NC(=O)Nc1ccc(C(=O)N4CCC[C@H](C(=O)NCCO)C4)cc1F)(C3)C2` [CC-120, (S)-1-(4-(3-((1r,3R,5S,7S)-3,5-dimethyladamantan-1-yl)ureido)-3-fluorobenzoyl)-N-(2-hydroxyethyl) piperidine-3-carboxamide] are 0.35 nM and 0.15 nM.
As for `CN(C)C(=O)[C@H]1CCCN(Cc2ccc(NC(=O)NC34CC5CC(C)(CC(C)(C5)C3)C4)c(F)c2)C1` [CL-105, (S)-1-(4-(3-((1r,3R,5S,7S)-3,5-dimethyladamantan-1-yl)ureido)-3-fluorobenzyl)-N,N-dimethylpiperidine-3-carboxamide], the results for the IC50 on HsEH and on MsEH were 0.7 nM and 0.12 nM, respectively.
As for `CC12CC3CC(C)(C1)CC(NC(=O)Nc1ccc(CN4CCC[C@H](C(=O)NC(CO)CO)C4)cc1F)(C3)C2` [CL-112, (S)—N-(1,3-dihydroxypropan-2-yl)-1-(4-(3-((1r,3R,5S,7S)-3,5-dimethyladamantan-1-yl)ureido)-3-fluorobenzyl) piperidine-3-carboxamide], the IC50 at HsEH (setting [1]) is 0.28 nM; against MsEH, 0.35 nM.
Regarding `C=CC(=O)N1CCCN(C(=O)[C@H]2CCCN(Cc3ccc(NC(=O)NC45CC6CC(C)(CC(C)(C6)C4)C5)c(F)c3)C2)CC1` [CL-201, 1-(4-(((S)-3-(4-acryloyl-1,4-diaza-1-carbonyl)piperidin-1-yl)methyl)-2-fluorophenyl)-3-((1r,3R,5S,7S)-3,5-dimethyladamantan-1-yl) urea], the values for the half-maximal inhibitory concentration (IC50) at HsEH (setting [1]) and against MsEH were 0.42 nM and 1.1 nM, respectively.
As to `C[C@]12C[C@@H]3C[C@](C)(C1)C[C@@](NC(=O)Nc1ccc(CN4CCC[C@H](C(=O)O)C4)cc1F)(C3)C2` [CL-5, (S)-1-(4-(3-((1r,3R,5S,7S)-3,5-dimethyladamantan-1-yl)ureido)-3-fluorobenzyl) piperidine-3-carboxylic acid], the IC50 came out at 2.3 nM at HsEH (setting [1]) and 0.61 nM on MsEH (setting [2]).
